# Assay results from patent US12559464B2, “Quinazolinone dione compounds and uses thereof” (Edgewise Therapeutics, Inc., priority 2023, dated 2026).
# How the values were obtained:
# [1] = test system: myosin ATPase, Rabbit Psoas myofibrils; assay: Myofibril ATPase assay, rabbit psoas (skeletal) myofibrils; format: biochemical; conditions: concentration required to reduce myosin ATP-ase activity by 25%; Rabbit Psoas Prep pCa 25 GEOM_MEAN
# Description: [Worded in the source for another species; this species is reported under the same test.] (§1) Myofibril ATPase assays are known in the art to be useful in evaluating small molecules for the treatment of HCM and other cardiac indications. Myosin ATPase activity is assessed by using a coupled reaction system, in which ADP generated by the myosin ATPase function is coupled to the disappearance of NADH through the pyruvate kinase/lactate dehydrogenase (PK-LDH) system. ATPase activity produces ADP, which is used as a substrate for PK to produce pyruvate and regenerate ATP. The pyruvate is then used as a substrate by LDH to oxidize NADH to NAD+. The rate of the reaction is monitored through the time-dependent disappearance of NADH using absorbance at 340 nm, which, when the couple system is in stoichiometric excess, is directly correlated to the ATPase activity of the myosin. Inhibition of ATPase activity by the assayed compounds is indicated by a reduced rate of NADH loss, relative to vehicle-treated controls, over the experimental time window. Porcine Ventricle are the primary sources of myofibril material.
# (§2) Materials: The following stock solutions and reagents were used in the Myofibril ATPase Assay: Stock Solutions; PIPES, 200 mM and 120 mM in H2O, pH 7.0; MgCl2 in H2O, 200 mM; PM12 Buffer, 10×: 120 mM PIPES (from 200 mM stock), 20 mM MgCl2 (from 200 mM stock); PBS Buffer, 1X: 135 mM NaCl, […], 10 mM Na(PO4)2, 1.8 mM K2(PO4), pH 7.4; EGTA in H2O, 250 mM; CaCl2) in H2O, 500 mM; DTT in H2O, 1 M; BSA in H2O, 10 mg/mL; ATP in 1×PBS, 50 mM; NADH in 1X PM12 and 1 mM DTT, 26 mM; PEP in 1X PM12, 78 mM, pH 7.0.
# (§3) Stock Solutions of pCa buffer. Combine PIPES, CaCl2, and EGTA solutions with water. Adjust pH to 7.0 and bring final volume to 100 mL.
# (§4) Buffer A & Buffer B. Prepare buffers A and B according to the table below.
# (§5) Myofibril ATPase Assay Procedure: BSA, ATP, NADH, PEP, and DTT solutions were thawed at room temperature, then transferred to ice. Pellet-frozen myofibrils were transferred with approximately twice the required volume into a sufficiently large tube and capped. Myofibrils were thawed by rolling in a water bath for approximately 15 min at room temperature and cooled on ice. Buffers A and B were prepared by adjusting volumes as necessary for required number of wells and stored on ice. 0.5 μL of the compounds to be assayed were added into wells. 25 μL of Buffer A was dispensed into the wells, followed by 25 μL of Buffer B. The wells were measured for absorbance at 340 nm, using a kinetic protocol in which the wells are read every 1.5-2 min for 75 min. Assay data analysis was performed using a python script that filtered the raw data to retain those points falling between a starting and ending time and between a maximum and minimum absorbance, then used the filtered time-domain 340 nm absorbance data in each well to calculate a slope via linear regression analysis in units of mAU/min. Compound slopes were normalized between 100% and 0% activity, where 100% represented the slope of wells containing only compound vehicle, and fit to a 4-parameter logistic model. In addition to the fit parameters, the EC25% values were calculated, relative to the 100% normalized value. Additionally, the Y125 values were calculated for compounds that increased myosin ATP-ase activity. Fit parameters, calculated effective concentrations, filtered raw data, and calculated slopes were exported, in addition to compound-specific graphs of normalized ATPase activity versus concentration in μM. Each value reported in Table 8 is either a Y75 value or a Y125 value. Values without pound sign, #, are Y75 values, which reflect the concentration required to reduce myosin ATP-ase activity by 25% (e.g., Y-axis activity value is 75% of initial value), relative to myosin ATP-ase activity in the absence of exogenous compound. […]
# [2] = test system: myosin ATPase, Porcine Atria myofibrils; assay: Myofibril ATPase assay, porcine atria myofibrils; format: biochemical; conditions: concentration required to reduce myosin ATP-ase activity by 25%; Porcine Atria Prep pCa 25 GEOM_MEAN
# [3] = target: T1, myosin ATPase, Porcine Ventricle myofibrils (Sus scrofa, UniProt P79293); assay: Myofibril ATPase assay, porcine ventricle myofibrils; format: biochemical, porcine (Yucatan minipigs); conditions: concentration required to reduce myosin ATP-ase activity by 25%; Porcine Ventricle Prep pCa 25 GEOM_MEAN
# T1 construct: Myofibrils from porcine cardiac muscle was isolated from the left ventricle of Yucatan minipigs; tissue Exemplar Genetics; host or cells: left ventricle of Yucatan minipigs, myofibrils
# Description: as §1, §2, §3, §4, §5
# T1 sequence (P79293 whole entry): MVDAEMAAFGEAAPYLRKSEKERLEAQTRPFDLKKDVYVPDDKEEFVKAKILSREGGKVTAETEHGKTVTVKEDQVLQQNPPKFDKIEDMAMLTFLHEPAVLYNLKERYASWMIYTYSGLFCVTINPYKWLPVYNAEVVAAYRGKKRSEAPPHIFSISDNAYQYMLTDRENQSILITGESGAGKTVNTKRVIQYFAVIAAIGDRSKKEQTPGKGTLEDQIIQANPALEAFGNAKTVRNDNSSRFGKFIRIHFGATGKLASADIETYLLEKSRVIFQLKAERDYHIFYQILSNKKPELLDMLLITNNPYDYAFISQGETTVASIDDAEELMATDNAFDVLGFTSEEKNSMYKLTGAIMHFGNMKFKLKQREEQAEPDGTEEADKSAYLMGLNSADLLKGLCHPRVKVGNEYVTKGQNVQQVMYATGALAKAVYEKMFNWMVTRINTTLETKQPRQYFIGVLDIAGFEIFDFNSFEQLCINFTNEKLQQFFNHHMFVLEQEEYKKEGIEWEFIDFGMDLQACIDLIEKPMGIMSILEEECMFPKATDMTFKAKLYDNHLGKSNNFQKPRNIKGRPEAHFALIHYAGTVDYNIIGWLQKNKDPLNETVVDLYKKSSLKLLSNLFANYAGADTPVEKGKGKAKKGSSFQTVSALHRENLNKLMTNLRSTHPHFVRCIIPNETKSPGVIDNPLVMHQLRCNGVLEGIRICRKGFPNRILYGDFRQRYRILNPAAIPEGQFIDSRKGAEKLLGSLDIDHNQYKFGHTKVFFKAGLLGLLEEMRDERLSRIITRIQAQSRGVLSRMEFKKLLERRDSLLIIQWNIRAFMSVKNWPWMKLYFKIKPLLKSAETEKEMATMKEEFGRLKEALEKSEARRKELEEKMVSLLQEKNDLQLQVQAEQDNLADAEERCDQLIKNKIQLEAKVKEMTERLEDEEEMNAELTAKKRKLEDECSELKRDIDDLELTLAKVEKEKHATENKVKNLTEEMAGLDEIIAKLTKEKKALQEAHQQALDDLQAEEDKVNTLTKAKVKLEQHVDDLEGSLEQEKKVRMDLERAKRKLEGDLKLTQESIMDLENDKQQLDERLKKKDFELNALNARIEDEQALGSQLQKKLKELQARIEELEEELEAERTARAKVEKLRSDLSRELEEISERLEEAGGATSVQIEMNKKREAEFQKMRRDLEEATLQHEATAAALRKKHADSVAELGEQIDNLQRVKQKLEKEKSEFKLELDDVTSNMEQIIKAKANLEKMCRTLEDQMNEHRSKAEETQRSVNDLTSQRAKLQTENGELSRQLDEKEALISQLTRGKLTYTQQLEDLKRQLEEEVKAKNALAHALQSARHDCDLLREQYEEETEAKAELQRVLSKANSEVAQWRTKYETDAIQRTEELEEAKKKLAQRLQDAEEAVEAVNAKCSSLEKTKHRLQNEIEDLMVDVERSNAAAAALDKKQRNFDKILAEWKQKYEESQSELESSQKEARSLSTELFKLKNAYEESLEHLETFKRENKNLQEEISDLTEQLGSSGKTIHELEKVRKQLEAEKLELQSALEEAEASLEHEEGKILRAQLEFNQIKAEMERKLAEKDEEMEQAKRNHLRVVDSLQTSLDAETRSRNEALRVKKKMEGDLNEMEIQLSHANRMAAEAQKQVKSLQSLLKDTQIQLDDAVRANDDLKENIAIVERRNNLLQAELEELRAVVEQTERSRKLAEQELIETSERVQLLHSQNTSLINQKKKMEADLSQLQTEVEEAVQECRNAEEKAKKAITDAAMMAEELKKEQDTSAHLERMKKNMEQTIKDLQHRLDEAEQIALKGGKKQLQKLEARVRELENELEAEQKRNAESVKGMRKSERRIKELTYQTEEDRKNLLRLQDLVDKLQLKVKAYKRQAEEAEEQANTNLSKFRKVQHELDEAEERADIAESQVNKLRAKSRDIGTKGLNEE
SMILES,Rabbit Psoas EC25 (Y75 value) [1],Porcine Atria EC25 (Y75 value) [2],Porcine Ventricle EC25 (Y75 value) [3]
"C[C@@H](NC(=O)Cn1c(=O)[nH]c2ccc(F)cc2c1=O)c1ncc(C#N)cn1 (single isomer, unassigned) [Compound 1]",0.59 µM,0.699 µM,20.04 µM
"C[C@H](NC(=O)Cn1c(=O)[nH]c2ccc(F)cc2c1=O)c1ncc(C#N)cn1 (single isomer, unassigned) [Compound 2]",86.83 µM,24.53 µM,100 µM
"C[C@@H](NC(=O)Cn1c(=O)[nH]c2ccc(F)c(F)c2c1=O)c1ccc(C#N)nn1 (single isomer, unassigned) [Compound 3]",2.538 µM,1.074 µM,100 µM
"C[C@H](NC(=O)Cn1c(=O)[nH]c2ccc(F)c(F)c2c1=O)c1ccc(C#N)nn1 (single isomer, unassigned) [Compound 4]",0.204 µM,0.178 µM,4.869 µM
"C[C@@H](NC(=O)Cn1c(=O)[nH]c2ccc(F)cc2c1=O)c1ncc(C#N)cc1F (single isomer, unassigned) [Compound 7]",5.692 µM,0.3543 µM,1.467 µM
"C[C@H](NC(=O)Cn1c(=O)[nH]c2ccc(F)cc2c1=O)c1ncc(C#N)cc1F (single isomer, unassigned) [Compound 8]",0.108 µM,0.094 µM,0.448 µM
"Cc1c(F)ccc2[nH]c(=O)n(CC(=O)N[C@@H]3CCc4cc(C#N)cnc43)c(=O)c12 (single isomer, unassigned) [Compound 9]",0.631 µM,0.078 µM,0.547 µM
"Cc1cc(C#N)cnc1[C@@H](C)NC(=O)Cn1c(=O)[nH]c2ccc(F)c(F)c2c1=O (single isomer, unassigned) [Compound 13]",0.043 µM,0.048 µM,0.119 µM
"Cc1cc(C#N)cnc1[C@H](C)NC(=O)Cn1c(=O)[nH]c2ccc(F)c(F)c2c1=O (single isomer, unassigned) [Compound 14]",21.27 µM,5.931 µM,23.76 µM
"C[C@@H](NC(=O)Cn1c(=O)[nH]c2ccc(C#N)cc2c1=O)c1ncc(C#N)cc1F (single isomer, unassigned) [Compound 15]",100 µM,4.31 µM,100 µM
"C[C@H](NC(=O)Cn1c(=O)[nH]c2ccc(C#N)cc2c1=O)c1ncc(C#N)cc1F (single isomer, unassigned) [Compound 16]",5.743 µM,0.57 µM,14.04 µM
"C[C@@H](NC(=O)Cn1c(=O)[nH]c2ccc(F)c(F)c2c1=O)c1ccc(C#N)cn1 (single isomer, unassigned) [Compound 17]",9.016 µM,0.427 µM,10.16 µM
"C[C@H](NC(=O)Cn1c(=O)[nH]c2ccc(F)c(F)c2c1=O)c1ccc(C#N)cn1 (single isomer, unassigned) [Compound 18]",0.512 µM,0.378 µM,5.522 µM
"C[C@@H](NC(=O)Cn1c(=O)[nH]c2ccc(F)c(C#N)c2c1=O)c1ncc(C#N)cc1F (single isomer, unassigned) [Compound 3001]",,5.34 µM,100.00 µM
"C[C@H](NC(=O)Cn1c(=O)[nH]c2ccc(F)c(C#N)c2c1=O)c1ncc(C#N)cc1F (single isomer, unassigned) [Compound 3002]",,0.11 µM,0.24 µM
"Cc1ccc2[nH]c(=O)n(CC(=O)N[C@H](C)c3ncc(C#N)cc3F)c(=O)c2c1F (single isomer, unassigned) [Compound 3003]",,1.32 µM,63.05 µM
"Cc1ccc2[nH]c(=O)n(CC(=O)N[C@@H](C)c3ncc(C#N)cc3F)c(=O)c2c1F (single isomer, unassigned) [Compound 3004]",,0.18 µM,0.51 µM
"C[C@H](NC(=O)Cn1c(=O)[nH]c2ccccc2c1=O)c1cccc2ccccc12 (single isomer, unassigned) [Compound 5002]",100 µM,,
"C[C@H](NC(=O)Cn1c(=O)[nH]c2cccc(Cl)c2c1=O)c1ccc(F)cc1F [Compound 136, (S)-2-(5-chloro-2,4-dioxo-1,4-dihydroquinazolin-3(2H)-yl)-N-(1-(2,4-difluorophenyl)ethyl)acetamide]",0.591 µM,,0.256 µM
"C[C@H](NC(=O)Cn1c(=O)[nH]c2ccccc2c1=O)c1ccc(F)cc1F [Compound 167, (S)-N-(1-(2,4-difluorophenyl)ethyl)-2-(2,4-dioxo-1,4-dihydroquinazolin-3(2H)-yl)acetamide]",0.52 µM,,7.022 µM
"CC(NC(=O)Cn1c(=O)[nH]c2ccccc2c1=O)C1CN(C)CCO1 (centres unmarked) [Compound 5001, 2-(2,4-dioxo-1,4-dihydroquinazolin-3(2H)-yl)-N-(1-(4-methylmorpholin-2-yl)ethyl)acetamide]",100 µM,,
"CC(NC(=O)Cn1c(=O)[nH]c2ccccc2c1=O)C1CCCCC1 (centres unmarked) [Compound 5003, N-(1-cyclohexylethyl)-2-(2,4-dioxo-1,4-dihydroquinazolin-3(2H)-yl)acetamide]",100 µM,,
"O=C(Cn1c(=O)[nH]c2ccccc2c1=O)NCc1ccc(Cn2cccn2)cc1 [Compound 5004, N-(4-((1H-pyrazol-1-yl)methyl)benzyl)-2-(2,4-dioxo-1,4-dihydroquinazolin-3(2H)-yl)acetamide]",100 µM,,
"O=C(Cn1c(=O)[nH]c2ccccc2c1=O)NCc1ccccn1 [Compound 5005, 2-(2,4-dioxo-1,4-dihydroquinazolin-3(2H)-yl)-N-(pyridin-2-ylmethyl)acetamide]",100 µM,,
"O=C(Cn1c(=O)[nH]c2ccccc2c1=O)NCc1cccnc1 [Compound 5006, 2-(2,4-dioxo-1,4-dihydroquinazolin-3(2H)-yl)-N-(pyridin-3-ylmethyl)acetamide]",100 µM,,
"O=C(Cn1c(=O)[nH]c2ccccc2c1=O)NCc1ccncc1 [Compound 5007, 2-(2,4-dioxo-1,4-dihydroquinazolin-3(2H)-yl)-N-(pyridin-4-ylmethyl)acetamide]",100 µM,,
"O=C(Cn1c(=O)[nH]c2ccccc2c1=O)NCCc1ccccc1Cl [Compound 5008, N-(2-chlorophenethyl)-2-(2,4-dioxo-1,4-dihydroquinazolin-3(2H)-yl)acetamide]",100 µM,,
